The values below come from PubChem BioAssay AID272 (DTP/NCI, 2004).

This assay has as its system Lewis lung carcinoma i.m., BDF1 mice, T/C %. The assay is described as follows: NCI In Vivo Anticancer Drug Screen. Data for tumor model Lewis Lung Carcinoma (intramuscular) in B6D2F1 (BDF1) mice. An outline of the steps: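 Mice carrying transplantable tumours received test compound. Survival or tumour size was recorded and expressed as the treated-group value (T) divided by the vehicle-treated control-group value (C).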

Values joined by “and” are separate entries in the source; they are usually repeats but may differ in a detail not shown here. Equal values may be shown once. Records with an inconclusive call do not appear.

Take `CCCCCCCCCCCCCC[n+]1ccccc1`: the T/C is 82 % of control (endpoint: mean tumor weight (est.), dose: 0.06 mg/kg/injection, schedule: Q01DX011 (ip), vehicle: saline, higher = larger tumour); 46 % of control (endpoint: mean tumor weight (est.), dose: 0.07 mg/kg/injection, schedule: Q01DX011 (ip), vehicle: saline, higher = larger tumour); 80 % of control (endpoint: mean tumor weight (est.), dose: 0.12 mg/kg/injection, schedule: Q01DX011 (ip), vehicle: saline, higher = larger tumour); 42 % of control (endpoint: mean tumor weight (est.), dose: 0.13 mg/kg/injection, schedule: Q01DX011 (ip), vehicle: saline, higher = larger tumour); 84 % of control (endpoint: mean tumor weight (est.), dose: 0.5 mg/kg/injection, schedule: Q01DX011 (ip), vehicle: saline, higher = larger tumour); 100 % of control (endpoint: median survival time, dose: 0.06 mg/kg/injection, schedule: Q01DX011 (ip), vehicle: saline, higher = longer survival). The T/C by setting is: (endpoint: median survival time, dose: 0.07 mg/kg/injection, schedule: Q01DX011 (ip), vehicle: saline, higher = longer survival) 93 % of control; (endpoint: median survival time, dose: 0.12 mg/kg/injection, schedule: Q01DX011 (ip), vehicle: saline, higher = longer survival) 100 % of control; (endpoint: median survival time, dose: 0.13 mg/kg/injection, schedule: Q01DX011 (ip), vehicle: saline, higher = longer survival) 100 % of control; (endpoint: median survival time, dose: 0.25 mg/kg/injection, schedule: Q01DX011 (ip), vehicle: saline, higher = longer survival) 91 % of control and 94 % of control; (endpoint: median survival time, dose: 0.5 mg/kg/injection, schedule: Q01DX011 (ip), vehicle: saline, higher = longer survival) 100 % of control.

Turning to `Nc1nc(=S)c2[nH]cnc2[nH]1`, the T/C is 105 % of control (endpoint: mean tumor weight, dose: 0.12 mg/kg/injection, schedule: Q01DX011 (ip), vehicle: other, higher = larger tumour); 93 % of control (endpoint: mean tumor weight, dose: 0.25 mg/kg/injection, schedule: Q01DX011 (ip), vehicle: other, higher = larger tumour); 76 % of control (endpoint: mean tumor weight, dose: 0.5 mg/kg/injection, schedule: Q01DX011 (ip), vehicle: other, higher = larger tumour); 97 % of control and 106 % of control (endpoint: median survival time, dose: 0.12 mg/kg/injection, schedule: Q01DX011 (ip), vehicle: other, higher = longer survival); 116 % of control and 121 % of control (endpoint: median survival time, dose: 0.25 mg/kg/injection, schedule: Q01DX011 (ip), vehicle: other, higher = longer survival); 116 % of control (endpoint: median survival time, dose: 0.5 mg/kg/injection, schedule: Q01DX011 (ip), vehicle: other, higher = longer survival).

Regarding `Nc1ncn(C2OC(CO)C(O)C2O)c(=O)n1` (centres undefined), the T/C is 105 % of control (endpoint: mean tumor weight, dose: 0.19 mg/kg/injection, schedule: Q01DX011 (ip), vehicle: saline, higher = larger tumour); 82 % of control (endpoint: mean tumor weight, dose: 0.38 mg/kg/injection, schedule: Q01DX011 (ip), vehicle: saline, higher = larger tumour); 93 % of control (endpoint: median survival time, dose: 0.1 mg/kg/injection, schedule: Q01DX011 (ip), vehicle: saline, higher = longer survival); 104 % of control (endpoint: median survival time, dose: 0.19 mg/kg/injection, schedule: Q01DX011 (ip), vehicle: saline, higher = longer survival); 106 % of control and 109 % of control (endpoint: median survival time, dose: 0.2 mg/kg/injection, schedule: Q01DX011 (ip), vehicle: saline, higher = longer survival); 90 % of control and 110 % of control (endpoint: median survival time, dose: 0.38 mg/kg/injection, schedule: Q01DX011 (ip), vehicle: saline, higher = longer survival). Besides, the T/C is, setting by setting: (endpoint: median survival time, dose: 0.4 mg/kg/injection, schedule: Q01DX011 (ip), vehicle: saline, higher = longer survival) 105 % of control and 124 % of control; (endpoint: median survival time, dose: 0.75 mg/kg/injection, schedule: Q01DX011 (ip), vehicle: saline, higher = longer survival) 112 % of control; (endpoint: median survival time, dose: 0.8 mg/kg/injection, schedule: Q01DX011 (ip), vehicle: saline, higher = longer survival) 106 % of control; (endpoint: median survival time, dose: 1.5 mg/kg/injection, schedule: Q01DX011 (ip), vehicle: saline, higher = longer survival) 108 % of control.

On to `CCN(CC)Cc1cc(Nc2c3ccccc3nc3cc(Cl)ccc23)ccc1O`, for which the T/C (endpoint: mean tumor weight (est.), dose: 35.0 mg/kg/injection, schedule: Q01DX011 (ip), vehicle: saline, higher = larger tumour) was 79 % of control.

On to `NC(C(=O)O)C(F)C(=O)O` (centres undefined), for which the T/C by setting is: (endpoint: median survival time, dose: 3.12 mg/kg/injection, schedule: Q01DX011 (ip), vehicle: saline, higher = longer survival) 104 % of control; (endpoint: median survival time, dose: 6.25 mg/kg/injection, schedule: Q01DX011 (ip), vehicle: saline, higher = longer survival) 98 % of control; (endpoint: median survival time, dose: 12.5 mg/kg/injection, schedule: Q01DX011 (ip), vehicle: saline, higher = longer survival) 103 % of control.

For `NC(=S)N/N=C/c1ccc(O)cn1`, the T/C was 60 % of control (endpoint: mean tumor weight, dose: 5.0 mg/kg/injection, schedule: Q03HX024 (ip), vehicle: other, higher = larger tumour); 46 % of control (endpoint: mean tumor weight, dose: 10.0 mg/kg/injection, schedule: Q03HX024 (ip), vehicle: other, higher = larger tumour); 15 % of control (endpoint: mean tumor weight, dose: 50.0 mg/kg/injection, schedule: Q01DX009 (ip), vehicle: other, higher = larger tumour); 18 % of control and 40 % of control (endpoint: mean tumor weight, dose: 50.0 mg/kg/injection, schedule: Q01DX011 (ip), vehicle: other, higher = larger tumour); 17 % of control (endpoint: mean tumor weight, dose: 100.0 mg/kg/injection, schedule: Q01DX011 (ip), vehicle: other, higher = larger tumour); 47 % of control (endpoint: mean tumor weight, dose: 200.0 mg/kg/injection, schedule: Q04DX003 (ip), vehicle: other, higher = larger tumour). Moreover, the T/C by setting is: (endpoint: mean tumor weight, dose: 400.0 mg/kg/injection, schedule: Q04DX003 (ip), vehicle: other, higher = larger tumour) 28 % of control; (endpoint: median survival time, dose: 5.0 mg/kg/injection, schedule: Q03HX024 (ip), vehicle: other, higher = longer survival) 108 % of control; (endpoint: median survival time, dose: 10.0 mg/kg/injection, schedule: Q03HX024 (ip), vehicle: other, higher = longer survival) 112 % of control; (endpoint: median survival time, dose: 50.0 mg/kg/injection, schedule: Q01DX011 (ip), vehicle: other, higher = longer survival) 113 % of control; (endpoint: median survival time, dose: 100.0 mg/kg/injection, schedule: Q01DX009 (ip), vehicle: other, higher = longer survival) 170 % of control; (endpoint: median survival time, dose: 100.0 mg/kg/injection, schedule: Q01DX011 (ip), vehicle: other, higher = longer survival) 103 % of control. Also, for the setting “endpoint: median survival time, dose: 200.0 mg/kg/injection, schedule: Q04DX003 (ip), vehicle: other, higher = longer survival”, the T/C was 120 % of control.
